Laboratory results reported in patent publication US20120149710A1, “SORTASE A INHIBITORS” (priority 2009, published 2012).
pEC50, pIC50, pKi: −log10 of the molar value. In brackets after ≈: the same amount, converted by molar mass. Entries after “also recorded” stand apart in the source; their conditions may differ.

Key:
[1] = target: B. anthracis sortase A enzyme (Bacillus anthracis, UniProt P0DPQ5); test: cell-based; details: for EC50 (estimated from a single concentration): read-out: EC50 estimated from a single concentration
Chain of B. anthracis sortase A enzyme (P0DPQ5 whole entry, looked up): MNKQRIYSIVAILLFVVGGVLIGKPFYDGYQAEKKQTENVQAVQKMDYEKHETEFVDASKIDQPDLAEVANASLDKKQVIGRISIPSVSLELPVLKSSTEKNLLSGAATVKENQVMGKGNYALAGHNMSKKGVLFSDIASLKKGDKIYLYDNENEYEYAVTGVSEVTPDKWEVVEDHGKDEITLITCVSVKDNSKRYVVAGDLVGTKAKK

[2] = tested on: S. aureus; test: S. aureus culture growth in the presence of 500 μM inhibitor; format: cell-based, Staphylococcus aureus; details: vs 2.5% DMSO control
[3] = target: SrtA (Staphylococcus aureus, UniProt Q2FV99); format: biochemical; details: inhibitor 10-fold above IC50, then rapid dilution
Chain of SrtA (Q2FV99 60-206): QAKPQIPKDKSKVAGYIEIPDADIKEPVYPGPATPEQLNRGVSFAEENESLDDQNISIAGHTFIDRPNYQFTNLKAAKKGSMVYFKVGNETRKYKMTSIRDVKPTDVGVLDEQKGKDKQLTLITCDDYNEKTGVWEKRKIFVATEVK

[4] = tested on: S. aureus strain Newman; test: MIC by microtiter broth dilution method; format: cell-based; details: Staphylococcus aureus, read-out: MIC preventing S. aureus growth
[5] = target: Bacillus anthracis sortase enzyme (BaSrtA) (Bacillus anthracis, UniProt P0DPQ5); test: biochemical
Chain of Bacillus anthracis sortase enzyme (BaSrtA) (P0DPQ5 whole entry, looked up): as the sequence (P0DPQ5 whole entry, looked up) above

[6] = target: S. aureus SrtA (Staphylococcus aureus, UniProt Q2FV99); test: FRET assay of SrtA-catalyzed hydrolysis of Abz-LPETG-Dap(Dnp); IC50 / Ki app; format: biochemical; details: for pIC50: purified enzyme, FRET, read-out: IC50 for inhibition of S. aureus SrtA; for pKi: read-out: Ki app (apparent dissociation constant of enzyme-inhibitor complex, Morrison's equation), S. aureus SrtA
Chain of S. aureus SrtA (Q2FV99 60-206): as the sequence (Q2FV99 60-206) above

[7] = tested on: SrtA activity in whole cells, S. aureus strain RN4220; test: Cell adhesion assay: whole cell adhesion to IgG coated plates (SrtA activity in whole cells); format: cell-based, Staphylococcus aureus; details: IgG coated microtiter plates

Structure (SMILES) | EC50 (estimated from a single concentration) [1] | Effect on S. aureus growth in cell culture, in words [2] | pKi [5] | pIC50 [6] | pKi [6] | further results
CCOc1c(SSc2ccccn2)cnn(-c2cccc(F)c2)c1=O [2-59, 4-Ethoxy-2-(3-fluorophenyl)-5-(pyridin-2-yldisulfanyl)pyridazin-3(2H)-one] | > 8 µM |  |  |  |  | 
Cc1ccc(N2C(=O)/C(=C/c3cc([N+](=O)[O-])cc(Br)c3O)SC2=S)c(C)c1 [compound 1] |  | toxic |  |  |  | Enzyme activity recovered immediately after dilution [3]: 84%; MIC [4]: ~10 µM (≈ 4.65 µg/mL)
CCSc1c(S)cnn(-c2ccccc2)c1=O [compound 2-9] |  | do not significantly inhibit S. aureus growth; also recorded: not bactericidal; also recorded: do not impair microbial growth in cell culture | ~6.52 | 5.85 | 5.85 | Inhibition of S. aureus SrtA, potency in words [6]: low micromolar
CCOc1c(SSc2ccccn2)cnn(-c2ccccc2)c1=O [compound 2-50, 4-Ethoxy-5-(2-pyridyldithio)-2-phenylpyridazin-3-one] | > 8 µM |  |  |  | ~7.52 | Concentration giving near complete inhibition of sortase activity [1]: about 34 μM; pEC50 [1]: ~4.82
CC1=NN(c2ccccc2)C(=S)/C1=C/Nc1c(Br)cc(Br)cc1Br [compound 3-12] | > 28 µM | do not substantially affect bacterial growth; also recorded: do not impair microbial growth in cell culture | 5.77 | 6.52 | 6.52 | Improvement of potency relative to lead 3 ([6]; 4-NO2 changed to 2,4,6-Br3): about 15 fold
Cc1oc(CN)nc1C(=O)c1nccs1 [compound 4] |  |  |  | 5.14 |  | Effect on SrtA-dependent adherence / protein display in whole cells [7]: potent effects; also recorded: inhibits protein display by SrtA in vivo
